Data reported in BindingDB's records for doi:10.1016/s0960-894x(02)00941-1 (Bristol-Myers Squibb Pharmaceuticals, 2003).

Target: T1, Tumor necrosis factor receptor superfamily member 1A (Homo sapiens, UniProt P19438)
T1 sequence (P19438 whole entry): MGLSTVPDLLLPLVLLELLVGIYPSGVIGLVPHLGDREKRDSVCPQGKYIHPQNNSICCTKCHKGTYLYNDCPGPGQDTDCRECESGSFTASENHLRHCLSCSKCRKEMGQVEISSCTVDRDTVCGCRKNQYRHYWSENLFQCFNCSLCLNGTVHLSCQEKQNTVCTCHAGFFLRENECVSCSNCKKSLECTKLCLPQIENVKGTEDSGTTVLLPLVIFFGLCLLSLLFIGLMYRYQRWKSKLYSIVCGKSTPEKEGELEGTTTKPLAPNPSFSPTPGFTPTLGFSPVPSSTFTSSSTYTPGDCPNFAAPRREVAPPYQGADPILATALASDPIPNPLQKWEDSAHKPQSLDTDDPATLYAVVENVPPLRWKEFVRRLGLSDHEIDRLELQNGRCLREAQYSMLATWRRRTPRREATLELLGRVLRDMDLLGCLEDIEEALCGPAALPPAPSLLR
Experiment: ChEBML_212214
Source text: Inhibition of TNF-alpha binding to TNFRc1

SMILES | IC50 [nM]
C=CCn1c(S)c2c(=C)c3c(OC)cc(OC)cc3n2c1=S [2-Allyl-6,8-dimethoxy-9-methyl-imidazo[1,5-a]indole-1,3-dithione] | 210
C=CCn1c(S)c2c(=C)c3c(OC)cc(OC)cc3n2c1=O [2-Allyl-6,8-dimethoxy-9-methyl-1-thioxo-1,2-dihydro-imidazo[1,5-a]indol-3-one] | 210
